PMC7515950, “Physiologically based pharmacokinetic modeling to assess metabolic drug–drug interaction risks and inform the drug label for fedratinib” (Cancer Chemotherapy and Pharmacology, 2020)
Like-named read-outs stand apart in the source and are kept apart here.

Columns and labels:
[1] = molecular target: P-gp (Homo sapiens, UniProt P08183); assay: P-gp interaction in Caco-2/TC7 (Study AIV0208); assay type: in vitro ADME; set-up: endogenous in cells; host or cells: Caco-2/TC7
Description: The reported IC50 values were converted to Ki values using the Cheng-Prusoff equation [10]:
The transporter inhibition parameters (Ki) for fedratinib were derived from the experimentally determined IC50 values using the Cheng-Prusoff equation, i.e., Ki = IC50/(1+[S]/Km) with the substrate concentrations ([S]) reported in the experimental studies and the substrate Km values collected from literature, as summarized in Table 13.

[2] = cited from earlier work
[3] = molecular target: T1, CYP3A4 (Homo sapiens, UniProt P08684); assay: CYP reversible and mechanism-based inhibition in human liver microsomes (MIH0887), CYP3A4; assay type: in vitro ADME
T1 construct: from tissue; host or cells: human liver microsomes
T1 sequence (P08684 2-503 limits assumed): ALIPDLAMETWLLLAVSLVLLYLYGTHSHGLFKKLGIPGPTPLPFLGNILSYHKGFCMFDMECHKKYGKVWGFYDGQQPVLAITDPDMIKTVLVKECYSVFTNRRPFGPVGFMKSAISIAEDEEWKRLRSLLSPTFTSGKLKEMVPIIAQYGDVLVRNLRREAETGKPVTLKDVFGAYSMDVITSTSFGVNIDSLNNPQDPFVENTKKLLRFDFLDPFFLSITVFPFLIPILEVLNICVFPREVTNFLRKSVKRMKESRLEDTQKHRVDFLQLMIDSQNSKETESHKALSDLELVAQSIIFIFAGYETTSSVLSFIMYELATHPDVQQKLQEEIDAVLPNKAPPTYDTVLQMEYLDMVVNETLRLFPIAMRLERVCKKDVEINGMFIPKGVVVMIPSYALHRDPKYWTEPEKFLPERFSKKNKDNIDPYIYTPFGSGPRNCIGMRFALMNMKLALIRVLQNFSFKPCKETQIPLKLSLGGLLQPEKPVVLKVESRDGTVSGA
Protocol: (§1) The CYP enzyme reverse inhibition and mechanism-based inhibition (MBI) parameters were estimated in the human liver microsome (HLM) incubation in vitro studies. The reported reversible inhibition parameter (i.e., apparent Ki) values for CYP2C8, CYP2C9, and CYP2D6, along with the MBI parameters (i.e., KI or Kapp and kinact) for CYP2C19 and CYP3A4, were supplied to the PBPK DDI model (see Table 2).

[4] = molecular target: T2, CYP2C9 (Homo sapiens, UniProt P11712); assay: CYP inhibition in human liver microsomes (MIH0887), CYP2C9; assay type: in vitro ADME; details: HLM, apparent Ki, reversible inhibition
T2 construct: from tissue; host or cells: human liver microsomes
T2 sequence (P11712 whole entry): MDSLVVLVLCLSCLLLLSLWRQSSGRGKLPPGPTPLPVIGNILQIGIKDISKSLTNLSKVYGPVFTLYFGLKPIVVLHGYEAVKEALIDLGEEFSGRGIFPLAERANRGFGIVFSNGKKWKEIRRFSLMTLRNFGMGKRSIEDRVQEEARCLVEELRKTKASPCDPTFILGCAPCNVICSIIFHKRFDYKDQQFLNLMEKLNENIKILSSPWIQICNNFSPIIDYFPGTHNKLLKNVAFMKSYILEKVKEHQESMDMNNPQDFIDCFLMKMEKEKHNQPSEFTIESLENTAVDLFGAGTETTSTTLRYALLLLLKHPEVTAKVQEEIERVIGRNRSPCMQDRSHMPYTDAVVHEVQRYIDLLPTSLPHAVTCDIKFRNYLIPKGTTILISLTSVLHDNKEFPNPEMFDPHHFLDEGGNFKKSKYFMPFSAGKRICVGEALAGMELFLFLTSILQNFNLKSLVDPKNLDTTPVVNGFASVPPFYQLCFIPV
Protocol: as §1

[5] = molecular target: T3, CYP2C8 (Homo sapiens, UniProt P10632); assay: CYP inhibition in human liver microsomes (MIH0887), CYP2C8; assay type: in vitro ADME; details: HLM, apparent Ki, reversible inhibition
T3 construct: from tissue; host or cells: human liver microsomes
T3 sequence (P10632 1-490): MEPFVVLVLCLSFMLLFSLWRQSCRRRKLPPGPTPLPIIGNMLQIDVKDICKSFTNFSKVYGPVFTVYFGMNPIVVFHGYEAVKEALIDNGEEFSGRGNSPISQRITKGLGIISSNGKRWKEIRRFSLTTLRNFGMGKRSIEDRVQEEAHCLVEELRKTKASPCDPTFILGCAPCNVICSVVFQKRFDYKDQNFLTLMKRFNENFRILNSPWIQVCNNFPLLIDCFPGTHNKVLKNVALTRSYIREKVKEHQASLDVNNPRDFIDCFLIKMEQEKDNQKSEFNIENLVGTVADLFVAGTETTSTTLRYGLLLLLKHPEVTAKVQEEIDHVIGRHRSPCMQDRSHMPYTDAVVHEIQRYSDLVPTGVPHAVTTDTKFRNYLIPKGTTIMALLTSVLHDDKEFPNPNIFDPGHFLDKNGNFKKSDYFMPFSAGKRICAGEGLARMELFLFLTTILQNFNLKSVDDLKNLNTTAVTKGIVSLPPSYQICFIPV
Protocol: as §1

[6] = set-up: method as in PMID 32248324; details: healthy subjects, observation, cited from earlier work; for AUC GM Ratio (90% CI): 300 mg single dose with vs without ketoconazole 200 mg BID, AUCinf
[7] = 300 mg QD, MF patients, Day 1, observation, GM
[8] = 300 mg QD, MF patients, Day 1, observation, Mean (SD)
[9] = 300 mg QD, MF patients, steady state, observation, GM
[10] = 300 mg QD, MF patients, steady state, observation, Mean (SD)
[11] = 400 mg QD, MF patients, Day 1, observation, GM
[12] = 400 mg QD, MF patients, Day 1, observation, Mean (SD)
[13] = 400 mg QD, MF patients, steady state, observation, GM
[14] = 400 mg QD, MF patients, steady state, observation, Mean (SD)
[15] = 500 mg QD, MF patients, Day 1, observation, GM
[16] = 500 mg QD, MF patients, Day 1, observation, Mean (SD)
[17] = 500 mg QD, MF patients, steady state, observation, GM
[18] = 500 mg QD, MF patients, steady state, observation, Mean (SD)
[19] = clinical observation in MF patients
[20] = 300 mg single dose + ketoconazole 200 mg BID, GM
[21] = 300 mg single dose + ketoconazole 200 mg BID, Mean (SD)
[22] = 300 mg single dose alone, Mean (SD)

P-gp, sequence (P08183 whole entry): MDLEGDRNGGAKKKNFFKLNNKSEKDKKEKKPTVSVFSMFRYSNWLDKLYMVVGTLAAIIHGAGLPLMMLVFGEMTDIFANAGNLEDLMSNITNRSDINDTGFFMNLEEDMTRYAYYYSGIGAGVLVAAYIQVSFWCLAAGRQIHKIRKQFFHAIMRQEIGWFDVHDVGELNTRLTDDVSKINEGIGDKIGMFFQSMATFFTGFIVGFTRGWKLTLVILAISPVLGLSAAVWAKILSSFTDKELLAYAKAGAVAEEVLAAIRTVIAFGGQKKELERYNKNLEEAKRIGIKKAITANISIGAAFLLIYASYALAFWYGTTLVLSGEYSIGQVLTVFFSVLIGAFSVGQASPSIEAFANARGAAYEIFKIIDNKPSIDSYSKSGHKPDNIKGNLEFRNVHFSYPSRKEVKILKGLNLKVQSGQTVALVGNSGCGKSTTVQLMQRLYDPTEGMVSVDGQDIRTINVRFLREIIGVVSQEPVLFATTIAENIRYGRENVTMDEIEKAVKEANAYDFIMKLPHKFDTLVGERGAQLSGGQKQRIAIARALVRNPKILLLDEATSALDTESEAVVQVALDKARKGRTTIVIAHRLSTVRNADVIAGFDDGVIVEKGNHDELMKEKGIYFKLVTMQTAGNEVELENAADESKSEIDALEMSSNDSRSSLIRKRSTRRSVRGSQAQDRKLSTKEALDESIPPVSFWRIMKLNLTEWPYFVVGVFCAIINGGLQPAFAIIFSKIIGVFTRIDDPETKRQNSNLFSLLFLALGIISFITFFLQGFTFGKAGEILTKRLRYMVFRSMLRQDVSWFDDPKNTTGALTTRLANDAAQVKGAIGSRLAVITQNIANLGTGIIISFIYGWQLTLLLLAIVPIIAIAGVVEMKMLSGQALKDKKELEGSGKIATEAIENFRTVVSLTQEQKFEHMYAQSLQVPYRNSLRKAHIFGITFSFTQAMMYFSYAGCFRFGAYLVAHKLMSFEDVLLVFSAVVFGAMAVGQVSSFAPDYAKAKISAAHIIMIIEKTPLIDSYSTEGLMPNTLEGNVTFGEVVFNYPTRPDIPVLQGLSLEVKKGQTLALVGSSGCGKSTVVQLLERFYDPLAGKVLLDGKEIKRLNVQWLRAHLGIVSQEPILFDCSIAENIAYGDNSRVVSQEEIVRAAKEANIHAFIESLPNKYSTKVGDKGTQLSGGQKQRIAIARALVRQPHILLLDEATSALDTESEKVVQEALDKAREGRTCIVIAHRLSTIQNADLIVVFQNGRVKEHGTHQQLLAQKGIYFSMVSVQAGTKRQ

Cc1cnc(Nc2ccc(OCCN3CCCC3)cc2)nc1Nc1cccc(S(=O)(=O)NC(C)(C)C)c1 [Fedratinib]
P-gp substrate in vitro [1]: substrate
Ki ([1]; from IC50 by Cheng-Prusoff, probe digoxin): 10 µM
IC50 ([1]; probe digoxin 5 μM): 10.1 µM
AUC (AUCτ) [2, 7]: 7020 ng·h/mL
Cmax [2, 7]: 1070 ng/mL
AUC (AUCτ) [2, 8]: 9460 (7770) ng/mL·h
Cmax [2, 8]: 1380 (1060) ng/mL
AUC (AUCτ) [2, 9]: 22400 ng·h/mL
Cmax [2, 9]: 1530 ng/mL
AUC (AUCτ) [2, 10]: 25300 (14100) ng/mL·h
Cmax [2, 10]: 1800 (1120) ng/mL
AUC (AUCτ) [2, 11]: 9130 ng·h/mL
Cmax [2, 11]: 1290 ng/mL
AUC (AUCτ) [2, 12]: 9610 (3450) ng/mL·h
Cmax [2, 12]: 1430 (754) ng/mL
AUC (AUCτ) [2, 13]: 26900 ng·h/mL
Cmax [2, 13]: 1800 ng/mL
AUC (AUCτ) [2, 14]: 29100 (13500) ng/mL·h
Cmax [2, 14]: 2020 (1250) ng/mL
AUC (AUCτ) [2, 15]: 9980 ng·h/mL
Cmax [2, 15]: 1270 ng/mL
AUC (AUCτ) [2, 16]: 11300 (6060) ng/mL·h
Cmax [2, 16]: 1420 (710) ng/mL
AUC (AUCτ) [2, 17]: 38700 ng·h/mL
Cmax [2, 17]: 2540 ng/mL
AUC (AUCτ) [2, 18]: 44500 (24900) ng/mL·h
Cmax [2, 18]: 2830 (1370) ng/mL
accumulation ratio, AUC ([2]; Study ARD11936 500 mg QD, MF patients, observed): 3.9
accumulation ratio, AUC [2, 19]: 2.9–3.2
accumulation ratio, Cmax [2, 19]: 1.4–2.0
Ki ([3]; HLM, assuming Ki = IC50/2): 9.55 µM
CYP3A4 KI or Kapp ([3]; HLM, mechanism-based inhibition): 1.57 µM
CYP3A4 KI or Kapp ([3]; HLM, mechanism-based inhibition, listed as fedratinib): 1.570 µM
kinact ([3]; human, human liver microsomes, HLM, mechanism-based inhibition): 0.000717 s⁻¹
IC50 ([3]; midazolam as substrate, absence of NADPH during pre-incubation, read-out: CYP3A IC50): 19.1 µM
Ki [4]: 26.1 µM
Ki [5]: 50.4 µM
AUC (AUCinf) [6, 20]: 25000 ng·h/mL
Cmax [6, 20]: 741 ng/mL
AUC (AUCinf) [6, 21]: 26,800 (10,600) ng/mL·h
Cmax [6, 21]: 812 (374) ng/mL
AUC (AUCinf) ([6]; 300 mg single dose alone, GM): 6460 ng·h/mL
Cmax ([6]; 300 mg single dose alone, GM): 379 ng/mL
AUC (AUCinf) [6, 22]: 7440 (4060) ng/mL·h
Cmax [6, 22]: 444 (262) ng/mL
AUC GM Ratio (90% CI) [6]: 3.06 (2.46–3.80)
AUC GM Ratio (90% CI) ([6]; listed as fedratinib): 3.06
